We go through 104 compounds from PubChem BioAssay AID1996.

For orientation: solubility (kinetic) means solubility judged after dilution from a stock solution rather than from solid.

Converted amounts (≈) assume the structure as drawn.

For the data set the following is noted: buffer; pH 7.4; 200.0 µM.
Consider `CN(CCC#N)C(=O)CC(Cc1ccccc1)C1CCOC(C)(C)C1` (centres undefined), for which the kinetic solubility was above 0.0514 mg/mL. As for `C=CCNC(=S)Nc1nc2c(cc1C(=O)OCC)COC(C)(C)C2`, the solubility (kinetic) came to 0.0031 mg/mL (≈ 8.87 µM).

Regarding `c1ccc(CCNCCCOc2cccc3ccccc23)cc1`, the solubility (kinetic) was 0.0371 mg/mL (≈ 121 µM). Consider `O=C(CCNC(=O)c1ccco1)Nc1ccccc1N1CCOCC1`, for which the kinetic solubility was above 0.0515 mg/mL. Then `O=c1[nH]cc(S(=O)(=O)Nc2ccc3c(c2)OCO3)c(=O)[nH]1`, with above 0.0467 mg/mL; and `O=C(CCCc1c[nH]c2ccccc12)NCc1cccs1`, with 0.0411 mg/mL (≈ 138 µM); and `Cc1ccc(/C(N)=N/OC(=O)c2ccc3ccccc3c2)cc1`, with 0.001 mg/mL (≈ 3.29 µM). As to `COc1ccc(CNC(=S)Nc2cccc(F)c2)cc1`, the kinetic solubility came out at 0.0146 mg/mL (≈ 50.3 µM). For `Clc1ccc(OCCn2cnc(Cl)c2Cl)cc1` the value was 0.0211 mg/mL (≈ 72.4 µM). Compound `CN1C(=O)c2ccccc2N(C)C1c1ccc(F)cc1` (centres undefined) came in with a kinetic solubility of 0.0307 mg/mL (≈ 114 µM). For `O=C(NC(=S)Nc1ccccc1Br)C1CCCC1` the value was 0.0027 mg/mL (≈ 8.25 µM). Turning to `COc1cccc(NC(=O)CN2C(=O)NC3(CCCCCC3)C2=O)c1`, the kinetic solubility is above 0.0518 mg/mL. For `O=C(Cc1ccc(Cl)cc1)N1CCN(c2ccc(F)cc2)CC1` the value was 0.019 mg/mL (≈ 57.1 µM); for `Cc1[nH]c2ccc(C(=O)N3CCC(C(N)=O)CC3)cc2c1C`, above 0.0449 mg/mL; for `O=C(Cc1nc2ccccc2[nH]1)c1ccc(Br)cc1`, 0.0246 mg/mL (≈ 78.1 µM). For `NC(=O)c1cccc(NC(=O)Nc2ccc(Cl)cc2)c1` the value was 0.0046 mg/mL (≈ 15.9 µM); for `COc1cccc(OC)c1OCCNCC1COc2ccccc2O1.Cl` (centres undefined), above 0.0573 mg/mL. Turning to `Cc1ccc(S(=O)(=O)N2CCC(C(=O)NCC3CC3)CC2)cc1`, the solubility (kinetic) was 0.0317 mg/mL (≈ 94.2 µM). Then `O=c1c([N+](=O)[O-])c(O)c2cccc3c2n1CCC3`, with 0.0363 mg/mL (≈ 147 µM).

On to `Cc1ccc(O)c(N/C=C/C(=O)c2ccc(F)cc2)c1`, for which the solubility (kinetic) stood at 0.0011 mg/mL (≈ 4.05 µM). Then `CC1CCN(C(=O)c2cc(-c3ccc4c(c3)OCO4)on2)CC1`, with 0.0282 mg/mL (≈ 89.7 µM); and `CN=C1S/C(=C/c2cn(CC(=O)OC)c3ccccc23)C(=O)N1C`, with 0.0041 mg/mL (≈ 11.9 µM).

On to `COC(=O)c1ccc(C(=O)Nc2nc3cc(N)c(C)cc3s2)cc1`, for which the kinetic solubility is below 0.0002 mg/mL. As for `COC(=O)Nc1nncs1`, the kinetic solubility was above 0.0239 mg/mL.

In the case of `O=C1CC(=O)N(c2ccccc2)C(=O)N1c1ccccc1`, the kinetic solubility is above 0.042 mg/mL. Then `Cc1ccccc1Nc1nc(N)nc(-c2oc3ccccc3c2C)n1`, with 0.001 mg/mL (≈ 3.02 µM). Consider `CCCCC(=O)Nc1ccccc1C(C)C`, for which the kinetic solubility was determined as 0.0233 mg/mL (≈ 106 µM). Regarding `CCc1onc(C)c1C(=O)Nc1ccc2c(c1)OCO2`, the solubility (kinetic) is above 0.0411 mg/mL. For `COc1ccccc1NC(=O)N1CCC(c2nc3ccccc3o2)CC1` the value was 0.0449 mg/mL (≈ 128 µM); for `Cc1ccc(Cl)cc1NC(=O)NCc1ccccn1`, 0.0365 mg/mL (≈ 132 µM). Regarding `COc1ccc(CCC(=O)OCC(=O)NCc2ccc(OC)c(OC)c2)cc1OC`, the kinetic solubility is above 0.0626 mg/mL. With `C=CCOC(=O)c1sc(NC(=O)c2ccc(OC)cc2)nc1C`, the solubility (kinetic) is below 0.0004 mg/mL. `O=C(COC(=O)c1ccc2ccccc2n1)Nc1ccccc1F` showed a kinetic solubility of 0.0089 mg/mL (≈ 27.4 µM).

In the case of `O=C(CCC(=O)N1CCCC1)Nc1ccc([N+](=O)[O-])cc1`, the kinetic solubility came out at 0.0413 mg/mL (≈ 142 µM). On to `O=C(NC(=O)N1CCCCCC1)c1ccc(Cl)cc1`, for which the solubility (kinetic) was above 0.0421 mg/mL. Then `CN(c1ccccc1)c1nc(N)c([N+](=O)[O-])c(NCCO)n1`, with 0.0429 mg/mL (≈ 141 µM); and `Cc1c(C)c(C)c2[nH]c(-c3ccc4c(c3)OCO4)nc2c1C`, with below 0.0003 mg/mL. For `COc1cccc(C(N)=O)c1OC(=O)Cc1ccccc1F` the value was above 0.0455 mg/mL; for `CC1CN(CC(=O)NC(C)c2ccccc2)CC(C)O1` (centres undefined), above 0.0415 mg/mL. Then `Cc1ccc(S(=O)(=O)NC(C)C(=O)NCc2ccc(Cl)cc2)cc1` (centres undefined), with 0.0069 mg/mL (≈ 18.8 µM). `Oc1ccc2c(c1)c1c3n2CCNC3CCC1` (centres undefined) showed a solubility (kinetic) of 0.0313 mg/mL (≈ 137 µM). Compound `CCCCSCCCNC(=O)Nc1ccc(C)c(C)c1` registered a kinetic solubility of 0.0011 mg/mL (≈ 3.74 µM). As to `Cc1cccnc1NC(=O)Cn1c(=O)oc2ccccc21`, the kinetic solubility was 0.0412 mg/mL (≈ 145 µM). Then `Cc1ccc2c(c1)C(c1ccccc1)=NCC(=O)N2C`, with above 0.0396 mg/mL; and `N#C/C(=C\c1cccnc1)C(=O)Nc1ccc(O)cc1F`, with above 0.0425 mg/mL. With `COc1cc(C(=O)N2CCc3ccccc32)cc(OC)c1OC`, the kinetic solubility was 0.0408 mg/mL (≈ 130 µM). For the compound `Cc1ccc(S(=O)(=O)N2CCOCC2)cc1C(=O)OCC(=O)NCCc1ccc(F)cc1`, the kinetic solubility came to 0.0602 mg/mL (≈ 130 µM). Then `O=C(COc1ccc(Cl)cc1)NCCCNC(=O)c1ccccn1`, with 0.0505 mg/mL (≈ 145 µM); and `O=c1[nH]oc2cc(Cl)ccc12`, with above 0.0254 mg/mL. `Cc1cc(SCNC(=O)c2ccccc2)nc(C(C)C)n1` came in with a solubility (kinetic) above 0.0452 mg/mL. The compound `Cn1cnc([N+](=O)[O-])c1SCCO` returned a kinetic solubility above 0.0305 mg/mL. Turning to `COc1ccc(C(=O)C(C)OC(=O)CNC(=O)C2CCCCC2)cc1` (centres undefined), the solubility (kinetic) was above 0.0521 mg/mL.

For the compound `COc1ccc(S(=O)(=O)Nc2cc3c4c(c2)CC(=O)N4CCC3)cc1`, the kinetic solubility was determined as 0.05 mg/mL (≈ 140 µM). Then `Cc1ccc(Cl)cc1NC(=O)C1COc2ccccc2O1` (centres undefined), with below 0.0007 mg/mL. For `Cn1c(SCC#N)nc2ccccc2c1=O` the value was 0.0302 mg/mL (≈ 131 µM). Compound `COc1ccc(OC)c(-c2csc(-c3cccs3)n2)c1` gave a solubility (kinetic) below 0.0006 mg/mL. Regarding `NS(=O)(=O)c1ccc(NC(=O)CN2CCCc3ccccc32)cc1`, the solubility (kinetic) came to 0.0191 mg/mL (≈ 55.3 µM). `Cc1cccc(NC(=O)C(C)Oc2ccc(C)nc2[N+](=O)[O-])c1` (centres undefined): the solubility (kinetic) was above 0.0473 mg/mL. Then `Cn1cccc1CNC(=S)Nc1ccccc1F`, with above 0.0395 mg/mL; and `COC(=O)c1cccc(N2CCCC2=O)c1`, with above 0.0329 mg/mL; and `Nc1nc(C23CC4CC(CC(Cl)(C4)C2)C3)cs1`, with 0.0085 mg/mL (≈ 31.6 µM).

As for `O=C(OCC(=O)c1ccc[nH]1)c1ccccc1`, the solubility (kinetic) worked out at 0.0322 mg/mL (≈ 140 µM). This solubility kinetic lies about 3.8-fold higher than the previous one. The compound `COc1c(C)cc(Br)cc1C(=O)Nc1ccccc1C` gave a solubility (kinetic) below 0.0007 mg/mL. Then `Cc1ccccc1C(=O)NC1CCCN(Cc2ccccc2F)C1` (centres undefined), with 0.0432 mg/mL (≈ 132 µM). For `COc1ccccc1CNC(=O)CCN1C(=O)c2ccccc2C1=O` the value was above 0.0508 mg/mL; for `CCN1CCN(C/C(C)=C/c2ccccc2)CC1`, 0.0272 mg/mL (≈ 111 µM); for `CCn1ccnc1CNC(=O)c1cc(COc2ccc(F)cc2F)on1`, 0.0493 mg/mL (≈ 136 µM). `CS(=O)(=O)N1CCCC(C(=O)Nc2ccc(F)cc2)C1` (centres undefined) gave a kinetic solubility above 0.0451 mg/mL. Then `CCCCN(Cc1ccccc1)C1CCN(Cc2ccccc2)CC1`, with 0.0273 mg/mL (≈ 81.1 µM); and `Cc1cc([N+](=O)[O-])c2c(c1C)C1C=CCC1C(c1ccccn1)N2` (centres undefined), with 0.0093 mg/mL (≈ 28.9 µM). For `Cc1ccc(NS(=O)(=O)c2cccc(C(=O)Nc3cccnc3)c2)c(C)c1`, the kinetic solubility was 0.006 mg/mL (≈ 15.7 µM). In turn, `CN(C)C(=O)c1c(NC(=O)c2ccccc2)sc2c1CCC2` registered a kinetic solubility of 0.0429 mg/mL (≈ 136 µM).

On to `CC(=O)c1ccc(OCCOc2ccc(C#N)cc2)cc1`, for which the kinetic solubility worked out at 0.0068 mg/mL (≈ 24.2 µM). Then `O=C(NCC(=O)N1CC=C(c2ccccc2)CC1)c1ccco1`, with above 0.0466 mg/mL; and `CCc1ccccc1NC(=O)C1CCN(c2cnccn2)CC1`, with above 0.0466 mg/mL. For `CN(C)CCCNc1nc(-c2ccccc2)nc2ccccc12.Cl` the value was 0.0441 mg/mL; for `COc1ccc(C(=O)CSc2[nH]c(=O)cc(C(F)(F)F)c2C#N)cc1`, above 0.0552 mg/mL; for `Cc1ccnc(N2CCCC(C(=O)Nc3cccc(C)c3C)C2)n1` (centres undefined), 0.0006 mg/mL (≈ 1.85 µM). Then `CC(C)(C)c1ccc(N=C2SCC(=O)N2Cc2cccs2)cc1`, with 0.0004 mg/mL (≈ 1.16 µM). In turn, `COc1ccc(Cl)cc1NC(=O)C(OC)c1ccccc1` (centres undefined) gave a kinetic solubility of 0.0039 mg/mL (≈ 12.8 µM). `COc1ccc(Nc2nccc(-c3ccc(C#N)cc3)n2)cc1`: the solubility (kinetic) stood at 0.0007 mg/mL (≈ 2.32 µM). As for `CC(=O)Nc1ccccc1NC(=O)c1ccccc1-c1ccccc1`, the solubility (kinetic) was above 0.0496 mg/mL. Compound `Cc1cccc(NC(=S)N2CCCN(c3ncccc3[N+](=O)[O-])CC2)c1` had a kinetic solubility of 0.0394 mg/mL (≈ 106 µM). `C=CCN(Cc1cccs1)C(=O)COc1ccc2c(c1)OCO2` returned a kinetic solubility above 0.0497 mg/mL. On to `CC1(C)C(C(=O)N2CCN(C(=O)c3ccccc3)CC2)C1(C)C`, for which the solubility (kinetic) was above 0.0472 mg/mL. For `COc1ccc(NC(=O)c2cccc(-c3ccc(O)cc3)c2)cn1` the value was 0.0097 mg/mL (≈ 30.3 µM); for `CCC(CC)C(=O)c1c[nH]c(C(=O)NCc2ccncc2)c1`, 0.0442 mg/mL (≈ 148 µM).

`Clc1cccc(CN2CCSCC2)c1Cl` gave a solubility (kinetic) of 0.001 mg/mL (≈ 3.81 µM). `O=C1CSC(=Nc2ccc(F)cc2)N1` came in with a solubility (kinetic) above 0.0315 mg/mL. Then `O=C(O)CCC(=O)Nc1ccc(Br)cc1C(=O)c1ccc(Cl)cc1`, with 0.0449 mg/mL (≈ 109 µM); and `CCC(C)[C@H](NC(=O)N1CCC(C)CC1)C(=O)O` (some centres undefined), with above 0.0385 mg/mL; and `O=C(COc1cccc2c1CCNC2=O)Nc1ccc(F)cc1`, with above 0.0471 mg/mL. The compound `Cc1ccccc1CC(=O)N1CCN(C(=O)c2ccco2)CC1` showed a solubility (kinetic) above 0.0469 mg/mL. For `CCS(=O)(=O)c1ccccc1C(=O)NC1CCCc2ccccc21` (centres undefined) the value was 0.0426 mg/mL (≈ 124 µM). The compound `CN(CC(=O)Nc1ccccc1Cl)CC(=O)Nc1cccc2ccccc12` showed a solubility (kinetic) of 0.0453 mg/mL (≈ 119 µM). Then `O=S(=O)(Nc1ccc(Cl)cc1)c1cccc2cccnc12`, with 0.005 mg/mL (≈ 15.7 µM); and `COc1ccc(CC(=O)NC2CC(C)(C)NC(C)(C)C2)cc1OC.Cl`, with above 0.0556 mg/mL. Then `Cc1ccc(-c2nc3ncccc3o2)cc1NC(=O)c1ccccc1`, with 0.0003 mg/mL (≈ 0.911 µM); and `CCOc1ccc(C(=O)NCCNC(=O)c2ccc(OCC)cc2)cc1`, with 0.0015 mg/mL (≈ 4.21 µM); and `CCN1CCN(c2nc(-c3ccccc3)c3ccccc3n2)CC1`, with 0.0461 mg/mL (≈ 145 µM). Turning to `CCC/C(O)=C1\C(=O)CCCC1=NCCc1c(C)[nH]c2ccccc12`, the solubility (kinetic) stood at 0.0344 mg/mL (≈ 102 µM). For `N#Cc1ccc(C(=O)OCC(=O)Nc2cccc(S(=O)(=O)NC3=NCCC3)c2)cc1` the value was above 0.064 mg/mL; for `CC1CCC(NC(=O)CN2C(=O)C3CC=CCC3C2=O)CC1` (centres undefined), above 0.0457 mg/mL; for `N#C/C(=C\c1cccnc1)C(=O)Nc1cccc(Cl)c1`, 0.01 mg/mL (≈ 35.2 µM).
